According to patent publication US20100016232A1, “Treatment Of Inflammatory Diseases With Mammal Beta Defensins” (Novozymes A/S, priority 2008, published 2010):
Marks after values point to notes of the source that are not given here. Where no end group is shown, it is not given here.

Key:
[1] = system: IL-23, human PBMC; assay: IL-23 in supernatants of human PBMC, ELISA; format: cell-based
Experimental: Peripheral blood was drawn from healthy volunteers (with approval from the relevant ethical committee in Denmark). Heparinized blood was diluted 1/1 v/v with RPMI and were subjected to Ficoll density centrifugation within 2 h of drawing. Plasma was collected from the top from individual donors and was kept on ice until it was used at 2% in the culture medium (autologous culture medium). Isolated PBMC were resuspended in autologous culture medium and seeded in 96-well culture plates with 255.000 cells per well in a total of 200 μl. […] The concentrations used for stimulation were optimized on 3 different donors in initial experiments, for LPS two different concentrations were used to be sure to be on a cytokine level that is possible to modulate. In some experiments PBMC were treated with Dexamethason and Indomethacin alone and together with LPS or LTA as a control on downregulation of inflammatory cytokines. The supernatants were collected after incubation at 37° C. for 24 hours, and stored at −80° C. until cytokine measurement. Viability was measured by Alamar Blue (Biosource, DALL 1100) in all experiments and in some cases also by MTS (Promega) according to manufacturer's instruction and was in some experiments also judged by counting of the cells by a Nucleocounter. […]
Cell culture supernatants were collected and stored at −80° C. Amounts of IL-23 was measured by standard sandwich ELISA using commercially available antibodies and standards according to the manufacturer's protocols (eBioscience).

[2] = system: DSS-induced colitis in the mouse; assay: 10-day DSS-induced colitis, Disease Activity Index (Example 6); format: in vivo; set-up: key: clinical Disease Activity Index (stool, bleeding, weight loss)
Experimental: Daily clinical assessment of DSS-treated animals was carried out, with the calculation of a validated clinical Disease Activity Index (DAI) ranging from 0 to 4 according to the following parameters: stool consistency, presence or absence of rectal bleeding and weight loss:
(§1) Example 6 was carried out essentially as described in Example 5. The differences are indicated below.
(§2) Animals were divided into 9 experimental groups.
The animals in group F received one dose i.v. and another dose s.c. (12 hours after the i.v. dose) of the corresponding test item for 10 consecutive days.
The animals in group G received one dose every two days of the corresponding test item for 10 consecutive days.
Methylprednisolone was given orally at a dose of 1 mg/kg (group H) and 10 mg/kg (group J) in a dosing volume of 5 ml/kg body weight, once daily for 10 consecutive days.

[3] = system: DSS-induced colitis in the mouse; assay: 10-day DSS-induced colitis, colon histological score (Example 6); format: in vivo
Experimental: Two sections (proximal and distal) of colon were taken from each animal and preserved in neutral buffered formalin for subsequent histological analysis (haematoxylin and eosin staining) according to the following scoring system:
as §1, §2
Two sections (proximal and distal) of colon were taken from each animal, processed for histological analysis (haematoxylin and eosin staining), and scored by a blind observer according to the scoring system described above.

[4] = system: IL-10, dendritic cells; assay: IL-10 from dendritic cells (MUTZ-3 derived) stimulated with LPS or LTA; format: cell-based, human; settings: dendritic cells stimulated with hBD2 and LPS or hBD2 and LTA; results not shown
Experimental: To generate a dendritoid cell line, the human myeloid leukaemia cell lines MUTZ-3 (1×10^5 cells/ml) was differentiated for 7 days in the presence of rhGM-CSF (150 ng/ml) and rhIL-4 (50 ng/ml) into immature DCs. Medium was exchanged every 2-3 days.
Cytokine production in supernatants was measured by flow cytometry with a human inflammation cytometric bead array (CBA) according to manufacturer's instructions (BD) on a FACSarray flow cytometer. The following cytokines were measured: IL-8, IL-1β, IL-10, TNF, IL-12 p70, IL-6. In some experiments, cytokines were measured by ELISA kits from R&D systems (IL-10, TNF-α, IL-1β) according to the manufacturer' instruction.

[5] = Group F, 0.1 mg/kg twice daily i.v. + s.c.
[6] = Group G, 0.1 mg/kg i.v. every 2. day

Substance: hBD2: human beta defensin 2, SEQ ID NO:2; produced recombinantly in E. coli (Example 1); hBD2 of Tables 16-18 was prepared by chemical synthesis (GIGDPVTCLKSGAICHPVFCPRRYKQIGTCGLPGTKCCKKP; ends and bridges not checked; cysteine pairing not given here; listed as Homo sapiens)
- IL-23 ([1]; Control (medium), treatment 1 μg/ml): 218 pg/mL
- IL-23 ([1]; Control (medium), treatment 10 μg/ml): 211 pg/mL
- IL-23 ([1]; Control (medium), treatment 100 μg/ml): 207 pg/mL
- IL-23 ([1]; LPS 0.6 ng/ml, treatment 1 μg/ml): 338 pg/mL
- IL-23 ([1]; LPS 0.6 ng/ml, treatment 10 μg/ml): 462 pg/mL
- IL-23 ([1]; LPS 0.6 ng/ml, treatment 100 μg/ml): 484 pg/mL
- IL-23 ([1]; LPS 20 ng/ml, treatment 1 μg/ml): 263 pg/mL
- IL-23 ([1]; LPS 20 ng/ml, treatment 10 μg/ml): 295 pg/mL
- IL-23 ([1]; LPS 20 ng/ml, treatment 100 μg/ml): 488 pg/mL
- IL-23 ([1]; LTA 5 μg/ml, treatment 1 μg/ml): 383 pg/mL
- IL-23 ([1]; LTA 5 μg/ml, treatment 10 μg/ml): 438 pg/mL
- IL-23 ([1]; LTA 5 μg/ml, treatment 100 μg/ml): 810 pg/mL
- DAI score, mean ([2]; Group B, 1 mg/kg i.v., Day 1): 0.00
- DAI score, mean ([2]; Group B, 1 mg/kg i.v., Day 2): 0.10
- DAI score, mean ([2]; Group B, 1 mg/kg i.v., Day 3): 0.20
- DAI score, mean ([2]; Group B, 1 mg/kg i.v., Day 4): 0.40
- DAI score, mean ([2]; Group B, 1 mg/kg i.v., Day 5): 0.30
- DAI score, mean ([2]; Group B, 1 mg/kg i.v., Day 6): 2.30*
- DAI score, mean ([2]; Group B, 1 mg/kg i.v., Day 7): 4.40*
- DAI score, mean ([2]; Group B, 1 mg/kg i.v., Day 8): 6.89
- DAI score, mean ([2]; Group B, 1 mg/kg i.v., Day 9): 5.00*
- DAI score, mean ([2]; Group B, 1 mg/kg i.v., Day 10): 5.78*
- DAI score, mean ([2]; Group C, 0.1 mg/kg i.v., Day 1): 0.00
- DAI score, mean ([2]; Group C, 0.1 mg/kg i.v., Day 2): 0.44
- DAI score, mean ([2]; Group C, 0.1 mg/kg i.v., Day 3): 0.89
- DAI score, mean ([2]; Group C, 0.1 mg/kg i.v., Day 4): 0.56
- DAI score, mean ([2]; Group C, 0.1 mg/kg i.v., Day 5): 0.78
- DAI score, mean ([2]; Group C, 0.1 mg/kg i.v., Day 6): 1.56**
- DAI score, mean ([2]; Group C, 0.1 mg/kg i.v., Day 7): 4.13*
- DAI score, mean ([2]; Group C, 0.1 mg/kg i.v., Day 8): 5.43*
- DAI score, mean ([2]; Group C, 0.1 mg/kg i.v., Day 9): 6.29*
- DAI score, mean ([2]; Group C, 0.1 mg/kg i.v., Day 10): 6.86
- DAI score, mean ([2]; Group D, 0.01 mg/kg i.v., Day 1): 0.00
- DAI score, mean ([2]; Group D, 0.01 mg/kg i.v., Day 2): 0.00
- DAI score, mean ([2]; Group D, 0.01 mg/kg i.v., Day 3): 0.30
- DAI score, mean ([2]; Group D, 0.01 mg/kg i.v., Day 4): 0.40
- DAI score, mean ([2]; Group D, 0.01 mg/kg i.v., Day 5): 1.60
- DAI score, mean ([2]; Group D, 0.01 mg/kg i.v., Day 6): 2.70
- DAI score, mean ([2]; Group D, 0.01 mg/kg i.v., Day 7): 6.50
- DAI score, mean ([2]; Group D, 0.01 mg/kg i.v., Day 8): 6.20*
- DAI score, mean ([2]; Group D, 0.01 mg/kg i.v., Day 9): 4.60***
- DAI score, mean ([2]; Group D, 0.01 mg/kg i.v., Day 10): 5.20**
- DAI score, mean ([2]; Group E, 0.001 mg/kg i.v., Day 1): 0.00
- DAI score, mean ([2]; Group E, 0.001 mg/kg i.v., Day 2): 0.00
- DAI score, mean ([2]; Group E, 0.001 mg/kg i.v., Day 3): 0.10
- DAI score, mean ([2]; Group E, 0.001 mg/kg i.v., Day 4): 0.20
- DAI score, mean ([2]; Group E, 0.001 mg/kg i.v., Day 5): 0.40
- DAI score, mean ([2]; Group E, 0.001 mg/kg i.v., Day 6): 3.40
- DAI score, mean ([2]; Group E, 0.001 mg/kg i.v., Day 7): 7.11
- DAI score, mean ([2]; Group E, 0.001 mg/kg i.v., Day 8): 8.56
- DAI score, mean ([2]; Group E, 0.001 mg/kg i.v., Day 9): 5.89**
- DAI score, mean ([2]; Group E, 0.001 mg/kg i.v., Day 10): 6.67
- DAI score, mean ([2]; Group F, 0.1 mg/kg twice daily i.v. + s.c., Day 1): 0.00
- DAI score, mean ([2]; Group F, 0.1 mg/kg twice daily i.v. + s.c., Day 2): 0.30
- DAI score, mean ([2]; Group F, 0.1 mg/kg twice daily i.v. + s.c., Day 3): 0.70
- DAI score, mean ([2]; Group F, 0.1 mg/kg twice daily i.v. + s.c., Day 4): 0.70
- DAI score, mean ([2]; Group F, 0.1 mg/kg twice daily i.v. + s.c., Day 5): 0.60
- DAI score, mean ([2]; Group F, 0.1 mg/kg twice daily i.v. + s.c., Day 6): 0.70***
- DAI score, mean ([2]; Group F, 0.1 mg/kg twice daily i.v. + s.c., Day 7): 3.50**
- DAI score, mean ([2]; Group F, 0.1 mg/kg twice daily i.v. + s.c., Day 8): 4.00***
- DAI score, mean ([2]; Group F, 0.1 mg/kg twice daily i.v. + s.c., Day 9): 2.90***
- DAI score, mean ([2]; Group F, 0.1 mg/kg twice daily i.v. + s.c., Day 10): 4.50***
- DAI score, mean ([2]; Group G, 0.1 mg/kg i.v. every 2. day, Day 1): 0.00
- DAI score, mean ([2]; Group G, 0.1 mg/kg i.v. every 2. day, Day 2): 0.20
- DAI score, mean ([2]; Group G, 0.1 mg/kg i.v. every 2. day, Day 3): 0.40
- DAI score, mean ([2]; Group G, 0.1 mg/kg i.v. every 2. day, Day 4): 0.50
- DAI score, mean ([2]; Group G, 0.1 mg/kg i.v. every 2. day, Day 5): 0.50
- DAI score, mean ([2]; Group G, 0.1 mg/kg i.v. every 2. day, Day 6): 2.90
- DAI score, mean ([2]; Group G, 0.1 mg/kg i.v. every 2. day, Day 7): 6.50
- DAI score, mean ([2]; Group G, 0.1 mg/kg i.v. every 2. day, Day 8): 8.70
- DAI score, mean ([2]; Group G, 0.1 mg/kg i.v. every 2. day, Day 9): 7.50
- DAI score, mean ([2]; Group G, 0.1 mg/kg i.v. every 2. day, Day 10): 6.56
- Histology Score Distal Colon, mean ([3]; Group B, 1 mg/kg i.v.): 3.56
- Histology Score Proximal Colon, mean ([3]; Group B, 1 mg/kg i.v.): 1.78
- Histology Score Distal Colon, mean ([3]; Group C, 0.1 mg/kg i.v.): 3.14*
- Histology Score Proximal Colon, mean ([3]; Group C, 0.1 mg/kg i.v.): 1.71
- Histology Score Distal Colon, mean ([3]; Group D, 0.01 mg/kg i.v.): 3.10**
- Histology Score Proximal Colon, mean ([3]; Group D, 0.01 mg/kg i.v.): 1.70
- Histology Score Distal Colon, mean ([3]; Group E, 0.001 mg/kg i.v.): 3.56
- Histology Score Proximal Colon, mean ([3]; Group E, 0.001 mg/kg i.v.): 1.44
- Histology Score Distal Colon, mean [3, 5]: 2.90***
- Histology Score Proximal Colon, mean [3, 5]: 1.30*
- Histology Score Distal Colon, mean [3, 6]: 3.56
- Histology Score Proximal Colon, mean [3, 6]: 1.56
- IL-10 [4]: induced
